According to patent publication US20240180865A1, “SUSTAINED-RELEASE LIPID PRE-CONCENTRATE” (TIONLAB THERAPEUTICS, priority 2021, published 2024):

Assay: Peroxide value of liquid crystal former according to type of stabilizer
Assay type: physicochemical
Settings: 0.3 g stabilizer in 3 g safflower oil, castor oil, cottonseed oil or oleic acid; 60° C. for two weeks
Method: 0.3 g of each of tocopherol, ViC_palmitate, mannitol, and ViC_Na was added as stabilizers to 3 g of each of safflower oil, castor oil, cottonseed oil, and oleic acid. After the resulting mixture was heated at 45 to 60° C. after DI treatment, it was cooled to room temperature and left to stand for 3 hours.
The degree of rancidity was evaluated by allowing the mixture to stand under harsh conditions of 60° C. for two weeks to measure the peroxide value of the liquid crystal former.
In order to measure the peroxide value, 0.3 g of the sample was weighed into a 300-ml Erlenmeyer flask, and then 30 ml of a solution of chloroform:glacial acetic acid (2:3) was added thereto. After a temporary dark place was created with silver foil paper, 1 ml of a KI saturated solution was added, and the resulting mixture was shaken vigorously, and then left to stand in the dark place for 5 minutes. Thereafter, 30 ml of distilled water was again added thereto, 1 ml of a 1% starch solution was added thereto, and then the resulting mixture was vigorously mixed. Thereafter, the mixture was titrated with a 0.01 N-Na2S2O3 standard solution while stirring with a magnetic stirrer, and the end point was set to the time when the dark blue color of the starch disappeared. Thereafter, the peroxide value of the sample was determined using the following equation. […]

tocopherol
peroxide value of the liquid crystal former: the peroxide value is higher than when no stabilizer is used

CCCCCCCCCCCCCCCC(=O)OC[C@H](O)[C@H]1OC(=O)C(O)=C1O [ViC_palmitate, ascorbic palmitate]
peroxide value of the liquid crystal former: the peroxide values of all the liquid crystal formers used in this test example were low
